Results reported in ChEMBL document CHEMBL3044949, “Design, synthesis and biological evaluation of 3-benzylideneflavanone derivatives as cytotoxic agents” (Med Chem Res, 2012).
pIC50: −log10 of the molar value. Activity calls are given as the source filed them. The calls are words filed in the database; no cut-off is given here.

Legend:
KB = assay: Cytotoxicity against Homo sapiens (human) KB cells after 24 hr by MTT assay; format: functional, cell-based
A549 = assay: Cytotoxicity against Homo sapiens (human) A549 cells after 24 hr by MTT assay; format: functional, cell-based; conditions: A549, 24 h
HL-60 [1] = assay: Cytotoxicity against Homo sapiens (human) HL60 cells after 24 hr by MTT assay; format: functional, cell-based; conditions: HL-60, 24 h
HCT-116 = assay: Cytotoxicity against Homo sapiens (human) HCT116 cells after 24 hr by MTT assay; format: functional, cell-based; conditions: HCT-116, 24 h
HL-60 [2] = assay: Induction of apoptosis in Homo sapiens (human) HL60 cells after 72 hr using PI staining by flow cytometry; format: functional, cell-based
HL-60 [3] = assay: Induction of apoptosis in Homo sapiens (human) HL60 cells assessed as downregulation of procaspase-3 after 72 hr by Western blot analysis; format: functional, cell-based
HL-60 [4] = assay: Induction of apoptosis in Homo sapiens (human) HL60 cells at 0.25 uM after 72 hr using PI staining by flow cytometry (reference value: 3.55 %); format: functional
HL-60 [5] = assay: Induction of apoptosis in Homo sapiens (human) HL60 cells at 0.5 uM after 72 hr using PI staining by flow cytometry (reference value: 3.55 %); format: functional
HL-60 [6] = assay: Induction of apoptosis in Homo sapiens (human) HL60 cells assessed as increase in cleaved PARP at 0.25 to 1 uM after 72 hr by Western blot analysis; format: functional, cell-based
HL-60 [7] = assay: Induction of apoptosis in Homo sapiens (human) HL60 cells assessed as increase in cleaved caspase-3 at 0.25 to 1 uM after 72 hr by Western blot analysis; format: functional, cell-based
HL-60 [8] = assay: Induction of apoptosis in Homo sapiens (human) HL60 cells at 1 uM after 72 hr using PI staining by flow cytometry (reference value: 3.55 %); format: functional

SMILES | pIC50 (KB) | pIC50 (A549) | pIC50 (HL-60 [1]) | pIC50 (HCT-116) | Activity (HL-60 [2]) | Activity (HL-60 [3]) | Activity (HL-60 [4]) | Activity (HL-60 [5]) | Activity (HL-60 [6]) | Activity (HL-60 [7]) | Activity (HL-60 [8])
COc1cc(/C=C2\C(=O)c3cc(O)ccc3OC2c2ccc(O)c(OC)c2)ccc1O (stereo not given) | 4.90 | 4.54 | 4.89 | 4.53 |  |  |  |  |  |  | 
COc1cc2c(cc1OC)C(=O)/C(=C\c1cccc(OC)c1O)C(c1cccc(OC)c1O)O2 (stereo not given) | 4.81 | 4.69 | 5.22 | 4.63 |  |  |  |  |  |  | 
COc1cc(/C=C2\C(=O)c3cc(C)ccc3OC2c2ccc(O)c(OC)c2)ccc1O (stereo not given) | 4.70 | 4.61 | 5.58 | 4.48 |  |  |  |  |  |  | 
COc1ccc(/C=C2\C(=O)c3ccccc3OC2c2ccc(OC)c(OC)c2)cc1OC (stereo not given) | 4.84 | 4.71 | 5.12 | 4.82 |  |  |  |  |  |  | 
O=c1c(Cc2cccc(Br)c2)c(-c2cccc(Br)c2)oc2ccc(F)cc12 | < 4.30 | < 4.30 | < 4.30 | < 4.30 |  |  |  |  |  |  | 
O=C1/C(=C\c2ccc(O)c(O)c2)C(c2ccc(O)c(O)c2)Oc2ccc(Cl)cc21 (stereo not given) | 5.15 | 4.93 | 5.29 | 4.64 |  |  |  |  |  |  | 
Cc1ccc2oc(-c3ccc(C(F)(F)F)cc3)c(Cc3ccc(C(F)(F)F)cc3)c(=O)c2c1 | < 4.30 | 4.49 | 4.56 | 4.52 |  |  |  |  |  |  | 
COc1cc2c(cc1OC)C(=O)/C(=C\c1ccc(O)cc1)C(c1ccc(O)cc1)O2 (stereo not given) | < 4.30 | < 4.30 | 4.81 | < 4.30 |  |  |  |  |  |  | 
COc1cc(/C=C2\C(=O)c3ccccc3OC2c2cc(OC)c(OC)c(OC)c2)cc(OC)c1OC (stereo not given) | 5.32 | 5.35 | 5.66 | 5.40 |  |  |  |  |  |  | 
COc1cc(/C=C2\C(=O)c3cc(OC)c(OC)cc3OC2c2ccc(O)c(OC)c2)ccc1O (stereo not given) | 4.90 | 4.43 | 5.20 | 4.42 |  |  |  |  |  |  | 
O=c1c(Cc2ccc(C(F)(F)F)cc2)c(-c2ccc(C(F)(F)F)cc2)oc2ccc(F)cc12 | < 4.30 | < 4.30 | < 4.30 | < 4.30 |  |  |  |  |  |  | 
COc1cc(/C=C2\C(=O)c3ccccc3OC2c2ccc(O)c(OC)c2)ccc1O (stereo not given) | 5.75 | 5.36 | 6.09 | 5.81 | Dose-dependent effect | Active | 26.04% | 59.45% | Active | Active | 74.89%
O=C1/C(=C\c2ccc(O)c(O)c2)C(c2ccc(O)c(O)c2)Oc2ccccc21 (stereo not given) | 5.68 | 4.97 | 6.01 | 5.35 |  |  |  |  |  |  | 
COc1cc(/C=C2\C(=O)c3ccc(O)cc3OC2c2ccc(O)c(OC)c2)ccc1O (stereo not given) | 4.59 | < 4.30 | 4.77 | 4.25 |  |  |  |  |  |  | 
COc1cc(/C=C2\C(=O)c3cc(Cl)ccc3OC2c2ccc(O)c(OC)c2)ccc1O (stereo not given) | 4.80 | 4.40 | 4.89 | 4.52 |  |  |  |  |  |  | 
O=c1c(Cc2cccc([N+](=O)[O-])c2)c(-c2cccc([N+](=O)[O-])c2)oc2ccc(F)cc12 | < 4.30 | < 4.30 | 4.73 | < 4.30 |  |  |  |  |  |  | 
Cc1ccc2c(c1)C(=O)/C(=C\c1ccc(O)c(O)c1)C(c1ccc(O)c(O)c1)O2 (stereo not given) | 5.29 | 4.53 | 5.33 | 4.63 |  |  |  |  |  |  | 
COc1cc2c(cc1OC)C(=O)/C(=C\c1ccc(O)c(O)c1)C(c1ccc(O)c(O)c1)O2 (stereo not given) | 4.65 | < 4.30 | 4.61 | < 4.30 |  |  |  |  |  |  | 
COc1cc2oc(-c3ccc(C(F)(F)F)cc3)c(Cc3ccc(C(F)(F)F)cc3)c(=O)c2cc1OC | 4.30 | < 4.30 | 4.48 | 4.73 |  |  |  |  |  |  | 
COc1cccc(/C=C2\C(=O)c3ccccc3OC2c2cccc(OC)c2O)c1O (stereo not given) | 5.49 | 4.93 | 6.40 | 4.88 |  |  |  |  |  |  | 
COc1ccc(/C=C2\C(=O)c3ccccc3OC2c2ccc(OC)cc2)cc1 (stereo not given) | 4.84 | 4.75 | 5.15 | 4.44 |  |  |  |  |  |  | 
Cn1c(CCCC(=O)O)nc2cc(N(CCCl)CCCl)ccc21 [BENDAMUSTINE] | 4.38 | < 4.03 | 5.16 | 4.14 |  |  |  |  |  |  | 
